Measurements published in patent publication US20240301319A1, “PERFUMING COMPOSITIONS” (FIRMNICH SA, priority 2017, published 2024).
Blank lines part the entries; values can stand above or below the molecule they belong to.

Legend:
[1] = Volatility of perfuming compounds (Tables 4 to 10), with top/middle/bottom note type; format: physicochemical
Method in brief: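 Volatility is expressed in μg/l in air. Top notes are 70,000 to 100 μg/l, middle notes 99 to 50 μg/l, and bottom notes 49 to 0.1 μg/l. Compounds are grouped by olfactive family: watery, green, fruity, citrus, sweet, gourmand and woody.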

[2] = Odor threshold and odor value of perfuming compounds (Tables 4 to 10); settings: for Odor Threshold (μg/l air): perfuming compounds having a green note
[3] = Log P (n-octanol/water) of perfuming compounds (Tables 4 to 10)
[4] = Table 8, perfuming compounds having a sweet note
[5] = Table 8, perfuming compounds having a sweet note, note type by volatility
[6] = Table 9, perfuming compounds having a gourmand note, note type by volatility
[7] = note type (Top/Middle/Bottom) by volatility, perfuming compounds having a green note
[8] = perfuming compounds having a green note
[9] = n-octanol/water, perfuming compounds having a green note
[10] = Table 10, perfuming compounds having a woody note, note type by volatility
[11] = Table 6, perfuming compounds having a fruity note
[12] = Table 6, perfuming compounds having a fruity note, note type by volatility

Compound: CCCC=C1OC(=O)c2ccccc21 [3-BUTYLIDENE-1-BENZO[C]FURANONE]
Volatility [1, 4]: 14.37 μg/l air
Type [1, 5]: Bottom
Volatility ([1]; Table 9, gourmand note): 14.37 μg/l air
Type [1, 6]: Bottom
Odor Threshold [2, 4]: 8.65E−04 μg/l air
Odor Value [2, 4]: 1.66E+04
Odor Threshold ([2]; Table 9, gourmand note): 8.65E−04 μg/l air
Log P (n-octanol/water) [3, 4]: 3.12
Log P (n-octanol/water) ([3]; Table 9, gourmand note): 3.12

Compound: COC(OC)C(C)c1ccccc1 (stereo not drawn) [1,1-DIMETHOXY-2-PHENYLPROPANE]
Type [1, 7]: Top
Volatility (μg/l air) [1, 8]: 376.94 μg/l air
Odor Threshold (μg/l air) [2]: 1.42E−02 μg/l air
Log P (n-octanol/water) [3, 9]: 2.50

Type [1, 10]: Middle
Volatility ([1]; Table 10, woody note): 91.38 μg/l air
Log P (n-octanol/water) [3, 11]: 3.33
Log P (n-octanol/water) ([3]; Table 10, woody note): 3.33
Compound: C/C=C/C(=O)C1=C(C)C=CCC1(C)C
Odor Threshold ([2]; Table 10, woody note): 3.00E−06 μg/l air

Compound: CC(=O)C(C)O (racemic) [(+−)-3-HYDROXY-2-BUTANONE]
Volatility [1, 4]: 33382.87 μg/l air
Type [1, 5]: Top
Volatility ([1]; Table 9, gourmand note): 33382.87 μg/l air
Type [1, 6]: Top
Type [1, 7]: Top
Volatility (μg/l air) [1, 8]: 33382.87 μg/l air
Odor Threshold [2, 4]: 1.46E−02 μg/l air
Odor Value [2, 4]: 2.28E+06
Odor Threshold ([2]; Table 9, gourmand note): 1.46E−02 μg/l air
Odor Threshold (μg/l air) [2]: 1.46E−02 μg/l air
Log P (n-octanol/water) [3, 4]: −1.03
Log P (n-octanol/water) ([3]; Table 9, gourmand note): −1.03
Log P (n-octanol/water) [3, 9]: −1.03

Compound: CC(=O)CCc1ccc(O)cc1 [4-(4-HYDROXY-1-PHENYL)-2-BUTANONE]
Volatility [1, 11]: 0.36 μg/l air
Type [1, 12]: Bottom
Odor Threshold [2, 11]: 2.05E−07 μg/l air
Odor Value [2, 11]: 1.75E+06
Log P (n-octanol/water) [3, 11]: 0.93

Compound: CCC(C)C(=O)OCCc1ccccc1 (racemic) [(+−)-2-PHENYLETHYL 2-METHYLBUTANOATE]
Volatility [1, 11]: 37.73 μg/l air
Type [1, 12]: Bottom
Odor Threshold [2, 11]: 8.56E−03 μg/l air
Odor Value [2, 11]: 4.41E+03
Log P (n-octanol/water) [3, 11]: 3.64

Compound: COc1ccc(CCC(C)=O)cc1 [4-(4-METHOXYPHENYL)-2-BUTANONE]
Volatility [1, 11]: 5.58 μg/l air
Type [1, 12]: Bottom
Volatility [1, 4]: 5.58 μg/l air
Type [1, 5]: Bottom
Volatility ([1]; Table 9, gourmand note): 5.58 μg/l air
Type [1, 6]: Bottom
Odor Threshold [2, 11]: 5.88E−06 μg/l air
Odor Value [2, 11]: 9.49E+05
Odor Threshold [2, 4]: 5.88E−06 μg/l air
Odor Value [2, 4]: 9.49E+05
Odor Threshold ([2]; Table 9, gourmand note): 5.88E−06 μg/l air
Log P (n-octanol/water) [3, 11]: 2.06
Log P (n-octanol/water) [3, 4]: 2.06
Log P (n-octanol/water) ([3]; Table 9, gourmand note): 2.06

Compound: N#C/C=C/c1ccccc1 [(E)-3-PHENYL-2-PROPENENITRILE]
Type [1, 10]: Middle
Volatility ([1]; Table 10, woody note): 66.00 μg/l air
Odor Threshold ([2]; Table 10, woody note): 8.97E−05 μg/l air
Log P (n-octanol/water) ([3]; Table 10, woody note): 1.98

Type [1, 10]: Bottom
Volatility ([1]; Table 10, woody note): 3.82 μg/l air
Log P (n-octanol/water) ([3]; Table 10, woody note): 6.50
Compound: CCC(C)C1(C)COC(C2CCC(C)=CC2C)OC1 (stereo not drawn)
Odor Threshold ([2]; Table 10, woody note): 1.67E−03 μg/l air

Compound: COc1ccc(C=O)cc1 [4-METHOXYBENZALDEHYDE]
Type [1, 7]: Middle
Volatility (μg/l air) [1, 8]: 98.47 μg/l air
Odor Threshold (μg/l air) [2]: 1.81E−05 μg/l air
Log P (n-octanol/water) [3, 9]: 1.56

Compound: CC(=O)CCc1ccccc1 [4-PHENYL-2-BUTANONE]
Volatility [1, 11]: 176.55 μg/l air
Type [1, 12]: TOP (perfuming compounds having a volatility ranging from 70,000 to 100 μg/l in air are referred to as “top notes”)
Type [1, 7]: Top
Volatility (μg/l air) [1, 8]: 176.55 μg/l air
Odor Threshold (μg/l air) [2]: 2.22E−04 μg/l air
Log P (n-octanol/water) [3, 11]: 1.79
Log P (n-octanol/water) [3, 9]: 1.79

Compound: CCCC(C)C(=O)OCC (racemic) [(+−)-ETHYL 2-METHYLPENTANOATE]
Volatility [1, 11]: 35090.18 μg/l air
Type [1, 12]: TOP (perfuming compounds having a volatility ranging from 70,000 to 100 μg/l in air are referred to as “top notes”)
Type [1, 7]: Top
Volatility (μg/l air) [1, 8]: 35090.18 μg/l air
Odor Threshold (μg/l air) [2]: 3.84E−05 μg/l air
Log P (n-octanol/water) [3, 11]: 3.05
Log P (n-octanol/water) [3, 9]: 3.05

Compound: CC(OC=O)C1CCCC(C)(C)C1 (stereo not drawn)
Volatility [1, 11]: 1129.46 μg/l air
Type [1, 12]: TOP (perfuming compounds having a volatility ranging from 70,000 to 100 μg/l in air are referred to as “top notes”)
Log P (n-octanol/water) [3, 11]: 4.01

Compound: SCc1ccco1 [2-FURANMETHANETHIOL]
Volatility [1, 4]: 29677.31 μg/l air
Type [1, 5]: Top
Odor Threshold [2, 4]: 1.43E−09 μg/l air
Odor Value [2, 4]: 2.08E+13
Log P (n-octanol/water) [3, 4]: 1.70

Compound: COC(Cc1ccccc1)OC [(2,2-DIMETHOXYETHYL)BENZENE]
Type [1, 7]: Top
Volatility (μg/l air) [1, 8]: 456.97 μg/l air
Odor Threshold (μg/l air) [2]: 4.55E−02 μg/l air
Log P (n-octanol/water) [3, 9]: 2.10
